In patent publication US10597388B2, “Pyridazinone herbicides” (FMC CORPORATION, priority 2014, dated 2020):

Columns and labels:
Format in all cases: in vivo
[1] = tested on: barnyardgrass (Echinochloa crus-galli); assay: Test A greenhouse herbicide test, pre- and postemergence
Method in brief: (§1)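 Seeds in loam–sand blend received a preemergence directed soil spray; plants at 2–10 cm, one- to two-leaf stage, received postemergence sprays. Compounds in a non-phytotoxic solvent with surfactant. After about 10 d in a greenhouse, injury rated visually versus untreated controls on a 0–100 scale (100 = complete control).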

corn (Zea mays) = assay: as above; conditions: Postemergence
Method in brief: as §1

[2] = tested on: foxtail, giant (giant foxtail, Setaria faberii); assay: as above
Method in brief: as §1

kochia (Kochia scoparia) = assay: as above
Method in brief: as §1

[3] = tested on: pigweed (Amaranthus retroflexus); assay: as above
Method in brief: as §1

[4] = tested on: ragweed (common ragweed, Ambrosia elatior); assay: as above
Method in brief: as §1

[5] = tested on: ryegrass, Italian (Italian ryegrass, Lolium multiflorum); assay: as above
Method in brief: as §1

[6] = tested on: wheat (Triticum aestivum); assay: as above; conditions: Postemergence
Method in brief: as §1

soybean (Glycine max) = assay: Test E greenhouse herbicide test, pre- and postemergence
From the text: Seeds of plant species selected from corn (Zea mays), soybean (Glycine max), velvetleaf (Abutilon theophrasti), lambsquarters (Chenopodium album), wild poinsettia (Euphorbia heterophylla), pigweed, palmer (palmer pigweed, Amaranthus palmeri), waterhemp (common waterhemp, Amaranthus rudis), surinam grass (Brachiaria decumbens), crabgrass, large (large crabgrass, Digitaria sanguinalis), crabgrass, Brazilian (Brazilian crabgrass, Digitaria horizontalis), panicum, fall (fall panicum, Panicum dichotomiflorum), foxtail, giant (giant foxtail, Setaria faberii), foxtail, green (green foxtail, Setaria viridis), goosegrass (Eleusine indica), johnsongrass (Sorghum halepense), ragweed (common ragweed, Ambrosia elatior), barnyardgrass (Echinochloa crus-galli), sandbur (southem sandbur, Cenchrus echinatus), arrowleaf sida (Sida rhombifolia), Italian ryegrass (Lolium multiflorum), dayflower (Virginia (VA) dayflower, Commelina virginica), field bindweed (Convolvulus arvensis), momingglory (Ipomoea coccinea), nightshade (eastern black nightshade, Solanum ptycanthum), kochia (Kochia scoparia), nutsedge, yellow (yellow nutsedge, Cyperus esculentus), horseweed (Conyza canadensis), and beggarticks (hairy beggarticks, Bidens pilosa), were planted into a silt loam soil and treated preemergence with test chemicals formulated in a non-phytotoxic solvent mixture which included a surfactant.
At the same time, plants from these crop and weed species and also waterhemp_RES1, (ALS & Triazine resistant common waterhemp, Amaranthus rudis), and waterhemp_RES2, (ALS & HPPD resistant common waterhemp, Amaranthus rudis) were planted in pots containing Redi-Earth® planting medium (Scotts Company, 14111 Scottslawn Road, Marysville, Ohio 43041) comprising spaghnum peat moss, vermiculite, wetting agent and starter nutrients were treated with postemergence applications of test chemicals formulated in the same manner. Plants ranged in height from 2 to 18 cm for postemergence treatments (1- to 4-leaf stage). Treated plants and controls were maintained in a greenhouse for 14 to 21 d, after which time all species were compared to controls and visually evaluated. Plant response ratings, summarized in Table E, are based on a scale of 0 to 100 where 0 is no effect and 100 is complete control. A dash (-) response means no test result.

[7] = Postemergence, 125 g ai/ha, 0 to 100 scale where 0 is no effect and 100 is complete control
[8] = Preemergence, 125 g ai/ha, 0 to 100 scale where 0 is no effect and 100 is complete control
[9] = Preemergence, 500 g ai/ha, 0 to 100 scale where 0 is no effect and 100 is complete control
[10] = 125 g ai/ha, 0 to 100 scale where 0 is no effect and 100 is complete control
[11] = 500 g ai/ha, visual rating after approx. 10 d, 0 to 100 scale (0 no effect, 100 complete control)
[12] = Postemergence, 500 g ai/ha, visual rating after approx. 10 d, 0 to 100 scale (0 no effect, 100 complete control)
[13] = 125 g ai/ha, Postemergence, scale 0 to 100 (0 no effect, 100 complete control)
[14] = Postemergence, 31 g ai/ha, visual, scale 0 no effect to 100 complete control

CCCC(=O)Oc1c(C)nn(C)c(=O)c1-c1c(C)sc2ccc(C)cc12 [Compound 105]
25: Plant response rating, Soybean (soybean (Glycine max); [13])
90: Barnyardgrass plant response rating ([1]; Postemergence, 500 g ai/ha, 0 to 100 scale, 0 is no effect, 100 is complete control) | Plant response rating, Foxtail, Giant [2, 12] | Foxtail, Giant plant response rating [2, 8] | Plant response rating, Kochia (kochia (Kochia scoparia); [7]) | Plant response rating, Kochia (kochia (Kochia scoparia); [12]) | Plant response rating, Pigweed [3, 7] | Plant response rating, Pigweed [3, 12] | Plant response rating, Ragweed [4, 7]
70: Plant response rating, Foxtail, Giant [2, 7]
75: Plant response rating, Soybean (soybean (Glycine max); 125 g ai/ha, Preemergence, scale 0 to 100 (0 no effect, 100 complete control))
10: Plant response rating, Soybean (soybean (Glycine max); [14])
50: Plant response rating, Barnyardgrass [1, 7]
100: Plant response rating, Barnyardgrass [1, 9] | Plant response rating, Foxtail, Giant [2, 9] | Kochia plant response rating (kochia (Kochia scoparia); [8]) | Plant response rating, Kochia (kochia (Kochia scoparia); [9]) | Pigweed plant response rating [3, 8] | Plant response rating, Pigweed [3, 9] | Plant response rating, Ragweed [4, 12] | Ragweed plant response rating [4, 8] | Plant response rating, Ragweed [4, 9] | Plant response rating, Ryegrass, Italian [5, 7] | Plant response rating, Ryegrass, Italian [5, 12] | Ryegrass, Italian plant response rating [5, 8] | Plant response rating, Ryegrass, Italian [5, 9]
20: Barnyardgrass plant response rating [1, 8] | Plant response rating, Wheat [6, 11]
30: Plant response rating, Corn (corn (Zea mays); [11])
0: Plant response rating, Corn (corn (Zea mays); [10]) | Plant response rating, Wheat [6, 10] | Plant response rating, Soybean (soybean (Glycine max); 62 g ai/ha, Preemergence, scale 0 to 100 (0 no effect, 100 complete control)) | Plant response rating, Soybean (soybean (Glycine max); Postemergence, 16 g ai/ha, visual, scale 0 no effect to 100 complete control) | Plant response rating, Soybean (soybean (Glycine max); Preemergence, 16 g ai/ha, scale 0 to 100, 0 no effect, 100 complete control) | Plant response rating, Soybean (soybean (Glycine max); Preemergence, 31 g ai/ha, scale 0 to 100, 0 no effect, 100 complete control)

Cc1nn(C)c(=O)c(-c2cccc3ccc(Br)cc23)c1O [Compound 126]
80: Plant response rating, Barnyardgrass [1, 9] | Plant response rating, Ragweed [4, 9]
60: Plant response rating, Barnyardgrass [1, 12] | Plant response rating, Foxtail, Giant [2, 12]
10: Foxtail, Giant plant response rating [2, 8] | Plant response rating, Soybean (soybean (Glycine max); [14])
100: Plant response rating, Pigweed [3, 12] | Pigweed plant response rating [3, 8] | Plant response rating, Pigweed [3, 9] | Plant response rating, Ryegrass, Italian [5, 12] | Plant response rating, Ryegrass, Italian [5, 9]
90: Plant response rating, Kochia (kochia (Kochia scoparia); [7]) | Plant response rating, Kochia (kochia (Kochia scoparia); [12]) | Plant response rating, Kochia (kochia (Kochia scoparia); [9]) | Plant response rating, Pigweed [3, 7] | Plant response rating, Ragweed [4, 7] | Plant response rating, Ragweed [4, 12] | Plant response rating, Ryegrass, Italian [5, 7] | Ryegrass, Italian plant response rating [5, 8]
0: Plant response rating, Corn (corn (Zea mays); [10]) | Plant response rating, Wheat [6, 10]
70: Plant response rating, Foxtail, Giant [2, 9] | Ragweed plant response rating [4, 8]
40: Barnyardgrass plant response rating [1, 8] | Plant response rating, Soybean (soybean (Glycine max); [13])
50: Kochia plant response rating (kochia (Kochia scoparia); [8])
30: Plant response rating, Barnyardgrass [1, 7] | Plant response rating, Soybean (soybean (Glycine max); 250 g ai/ha, Postemergence, scale 0 to 100 (0 no effect, 100 complete control))
20: Plant response rating, Corn (corn (Zea mays); [11]) | Plant response rating, Foxtail, Giant [2, 7] | Plant response rating, Wheat [6, 11]
